{
  "source": "patent US20250136652A1",
  "about": "“FUSION PROTEIN FOR TARGETING RECOMBINANT PROTEINS FOR DEGRADATION” (The Regents of the University of California, priority 2022, published 2025)",
  "system": "synthetic drug-inducible transcription factor (SynTF) fused to a SynZip",
  "experiment": "STUD negative feedback circuit regulating SynTF in Jurkat T cells, GFP reporter",
  "assay_type": "cell-based",
  "conditions": "GZV 72 hours at 37 C",
  "excerpt": "FIG. 6A: STUDs can be composed into negative feedback circuit to regulate synthetic transcription factor (SynTF). Cartoon diagram of plasmids used in negative feedback circuit transduced into Jurkat T cells. Synthetic transcription factors used in this work (grey) are made up of a transcriptional activation domain (AD) and a DNA binding domain (DBD) separated by a NS3 protease. In the absence of the NS3 inhibitor grazoprevir (GZV), the TF is destabilized and non-functional. On the other hand, the addition of GZV stabilizes the TF and allows for transcription of the gene cassette downstream of the SynTF promoter (pSynTF). Three types of circuits were designed: (1) A negative feedback circuit that has the SynTF driving expression of the GFP reporter and the STUD which results in degradation of the SynTF and shut off the circuit. […]\nThe circuit has three components: (1) a synthetic drug-inducible transcription factor (SynTF) fused to a SynZip, (2) a GFP reporter, and (3) a SynZip STUD that targets the SynTF (FIG. 6A). […] After incubation, we assay for GFP fluorescence by flow cytometry and gate on cells expressing the co-transduction markers (mCherry and tagBFP) for both plasmids relative to a untransduced control. […]",
  "data": [
    {"substance": "SynZip STUD: Fusion protein SEQ ID NO: 413: lysine-free modified synZIP18 heterodimerization domain, flexible linker, C-terminal RRRG degron; 55 amino acids (SIAATLENDLARLENENARLERDIANLERDLARLEREEAYFGSGSGSGSGSRRRG)", "values": [
      {"measurement": "inhibition of SynTF (fold change of median GFP relative to DMSO)", "result": "inhibits the SynTF"}
    ]}
  ]
}
